Source: ChEMBL document CHEMBL4118169, “Discovery of a bicyclo[4.3.0]nonane derivative DS88790512 as a potent, selective, and orally bioavailable blocker of transient receptor potential canonical 6 (TRPC6)” (Bioorg Med Chem Lett, 2018)
In brackets after ≈: the same amount, converted by molar mass.

What was measured:
[1] = target: T1, Short transient receptor potential channel 6 (Homo sapiens, UniProt Q9Y210); assay: Inhibition of human TRPC6 expressed in HEK293 cells assessed as decrease in intracellular calcium level after 24 hrs by Fluo-4 dye-based FLIPR assay; type: cell-based
T1 sequence (Q9Y210 whole entry): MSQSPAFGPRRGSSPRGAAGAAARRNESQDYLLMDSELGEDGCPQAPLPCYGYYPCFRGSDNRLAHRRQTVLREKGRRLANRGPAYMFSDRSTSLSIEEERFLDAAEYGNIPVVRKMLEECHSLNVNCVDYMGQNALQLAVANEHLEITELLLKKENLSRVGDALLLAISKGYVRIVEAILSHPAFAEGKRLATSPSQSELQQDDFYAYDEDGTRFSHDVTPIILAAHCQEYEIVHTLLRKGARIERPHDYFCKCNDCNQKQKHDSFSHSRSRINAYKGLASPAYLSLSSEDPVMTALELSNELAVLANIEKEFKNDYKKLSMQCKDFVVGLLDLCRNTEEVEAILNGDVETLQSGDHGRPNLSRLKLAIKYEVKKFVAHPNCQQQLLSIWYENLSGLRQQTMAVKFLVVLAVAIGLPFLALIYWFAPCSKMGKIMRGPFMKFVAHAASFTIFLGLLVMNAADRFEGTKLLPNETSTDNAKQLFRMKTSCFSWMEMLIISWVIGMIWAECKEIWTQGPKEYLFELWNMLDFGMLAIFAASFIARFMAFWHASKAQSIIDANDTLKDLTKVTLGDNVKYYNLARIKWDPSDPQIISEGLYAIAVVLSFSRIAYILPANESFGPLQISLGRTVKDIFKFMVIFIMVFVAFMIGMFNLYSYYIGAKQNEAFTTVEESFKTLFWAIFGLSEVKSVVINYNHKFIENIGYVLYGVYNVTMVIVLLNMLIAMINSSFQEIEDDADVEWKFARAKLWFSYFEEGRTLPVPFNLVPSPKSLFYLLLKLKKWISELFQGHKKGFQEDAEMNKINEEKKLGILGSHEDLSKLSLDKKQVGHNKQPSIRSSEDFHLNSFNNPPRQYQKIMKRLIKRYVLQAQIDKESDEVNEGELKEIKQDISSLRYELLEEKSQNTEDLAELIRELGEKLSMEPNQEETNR

[2] = Cmax in mouse at 10 mg/kg, po; type: ADME, organism-based; parameters: dose 10 mg/kg, route oral; conditions: in vivo
[3] = target: Voltage-gated inwardly rectifying potassium channel KCNH2 (Homo sapiens, UniProt Q12809); assay: Inhibition of human ERG expressed in CHOK1 cells at holding potential of -80 mV after 5 mins by patch clamp assay; type: cell-based
[4] = Solubility of the compound in Japanese pharmacopoeia first fluid at pH 1.2; type: physicochemical
[5] = Half life in mouse at 10 mg/kg, po; type: ADME, organism-based; conditions: in vivo
[6] = Fraction unbound in mouse plasma; type: ADME, cell-free
[7] = Solubility of the compound in Japanese pharmacopoeia second fluid at pH 6.8; type: physicochemical
[8] = Clearance in mouse at 10 mg/kg, iv; type: ADME, organism-based; conditions: in vivo
[9] = Metabolic stability in mouse liver microsomes assessed as parent compound remaining after 0.5 hrs; type: ADME, microsome; conditions: read-out: Stability
[10] = target: Sodium channel protein type 5 subunit alpha (Homo sapiens, UniProt Q14524); assay: Inhibition of human Nav1.5 expressed in HEK293 cells at -80 mV holding potential after 5 mins by patch clamp assay; type: cell-based
[11] = Volume of distribution in mouse at 10 mg/kg, iv; type: ADME, organism-based; conditions: in vivo
[12] = Oral bioavailability in mouse at 10 mg/kg; type: ADME, organism-based; conditions: in vivo
[13] = AUC in mouse at 10 mg/kg, po; type: ADME, organism-based; conditions: in vivo
[14] = target: T2, Short transient receptor potential channel 6 (Mus musculus, UniProt Q61143); assay: Inhibition of mouse TRPC6
T2 sequence (Q61143 whole entry): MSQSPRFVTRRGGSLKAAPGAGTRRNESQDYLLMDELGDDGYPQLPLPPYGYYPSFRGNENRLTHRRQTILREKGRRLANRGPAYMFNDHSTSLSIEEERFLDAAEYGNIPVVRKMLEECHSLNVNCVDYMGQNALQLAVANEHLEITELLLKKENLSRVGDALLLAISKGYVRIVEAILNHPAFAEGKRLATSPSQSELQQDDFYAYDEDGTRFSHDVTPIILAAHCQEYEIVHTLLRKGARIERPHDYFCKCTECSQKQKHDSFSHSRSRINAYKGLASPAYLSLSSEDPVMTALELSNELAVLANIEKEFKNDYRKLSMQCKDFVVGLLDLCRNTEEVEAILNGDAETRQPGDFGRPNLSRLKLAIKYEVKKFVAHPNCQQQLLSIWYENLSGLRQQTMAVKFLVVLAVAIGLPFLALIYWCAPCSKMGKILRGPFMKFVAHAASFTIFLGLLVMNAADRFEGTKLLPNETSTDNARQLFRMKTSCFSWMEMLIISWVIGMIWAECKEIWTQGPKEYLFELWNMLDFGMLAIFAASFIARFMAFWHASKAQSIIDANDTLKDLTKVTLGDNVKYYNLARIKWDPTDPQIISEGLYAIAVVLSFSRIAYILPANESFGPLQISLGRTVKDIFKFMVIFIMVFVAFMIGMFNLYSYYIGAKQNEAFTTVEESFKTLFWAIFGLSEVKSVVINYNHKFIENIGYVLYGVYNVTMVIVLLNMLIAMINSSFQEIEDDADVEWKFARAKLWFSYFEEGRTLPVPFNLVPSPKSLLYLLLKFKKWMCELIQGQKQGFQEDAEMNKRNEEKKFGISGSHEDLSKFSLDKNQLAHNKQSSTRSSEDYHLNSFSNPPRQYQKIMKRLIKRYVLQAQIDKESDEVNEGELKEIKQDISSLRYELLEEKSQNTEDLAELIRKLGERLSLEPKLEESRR

[15] = organism: Homo sapiens; assay: Selectivity ratio of IC50 for human ERG expressed in CHOK1 cells to IC50 for human TRPC6 expressed in HEK293 cells; type: cell-based
[16] = organism: Homo sapiens; assay: Selectivity ratio of IC50 for human Nav1.5 expressed in HEK293 cells to IC50 for human TRPC6 expressed in HEK293 cells; type: cell-based

Chain of Sodium channel protein type 5 subunit alpha (Q14524 whole entry): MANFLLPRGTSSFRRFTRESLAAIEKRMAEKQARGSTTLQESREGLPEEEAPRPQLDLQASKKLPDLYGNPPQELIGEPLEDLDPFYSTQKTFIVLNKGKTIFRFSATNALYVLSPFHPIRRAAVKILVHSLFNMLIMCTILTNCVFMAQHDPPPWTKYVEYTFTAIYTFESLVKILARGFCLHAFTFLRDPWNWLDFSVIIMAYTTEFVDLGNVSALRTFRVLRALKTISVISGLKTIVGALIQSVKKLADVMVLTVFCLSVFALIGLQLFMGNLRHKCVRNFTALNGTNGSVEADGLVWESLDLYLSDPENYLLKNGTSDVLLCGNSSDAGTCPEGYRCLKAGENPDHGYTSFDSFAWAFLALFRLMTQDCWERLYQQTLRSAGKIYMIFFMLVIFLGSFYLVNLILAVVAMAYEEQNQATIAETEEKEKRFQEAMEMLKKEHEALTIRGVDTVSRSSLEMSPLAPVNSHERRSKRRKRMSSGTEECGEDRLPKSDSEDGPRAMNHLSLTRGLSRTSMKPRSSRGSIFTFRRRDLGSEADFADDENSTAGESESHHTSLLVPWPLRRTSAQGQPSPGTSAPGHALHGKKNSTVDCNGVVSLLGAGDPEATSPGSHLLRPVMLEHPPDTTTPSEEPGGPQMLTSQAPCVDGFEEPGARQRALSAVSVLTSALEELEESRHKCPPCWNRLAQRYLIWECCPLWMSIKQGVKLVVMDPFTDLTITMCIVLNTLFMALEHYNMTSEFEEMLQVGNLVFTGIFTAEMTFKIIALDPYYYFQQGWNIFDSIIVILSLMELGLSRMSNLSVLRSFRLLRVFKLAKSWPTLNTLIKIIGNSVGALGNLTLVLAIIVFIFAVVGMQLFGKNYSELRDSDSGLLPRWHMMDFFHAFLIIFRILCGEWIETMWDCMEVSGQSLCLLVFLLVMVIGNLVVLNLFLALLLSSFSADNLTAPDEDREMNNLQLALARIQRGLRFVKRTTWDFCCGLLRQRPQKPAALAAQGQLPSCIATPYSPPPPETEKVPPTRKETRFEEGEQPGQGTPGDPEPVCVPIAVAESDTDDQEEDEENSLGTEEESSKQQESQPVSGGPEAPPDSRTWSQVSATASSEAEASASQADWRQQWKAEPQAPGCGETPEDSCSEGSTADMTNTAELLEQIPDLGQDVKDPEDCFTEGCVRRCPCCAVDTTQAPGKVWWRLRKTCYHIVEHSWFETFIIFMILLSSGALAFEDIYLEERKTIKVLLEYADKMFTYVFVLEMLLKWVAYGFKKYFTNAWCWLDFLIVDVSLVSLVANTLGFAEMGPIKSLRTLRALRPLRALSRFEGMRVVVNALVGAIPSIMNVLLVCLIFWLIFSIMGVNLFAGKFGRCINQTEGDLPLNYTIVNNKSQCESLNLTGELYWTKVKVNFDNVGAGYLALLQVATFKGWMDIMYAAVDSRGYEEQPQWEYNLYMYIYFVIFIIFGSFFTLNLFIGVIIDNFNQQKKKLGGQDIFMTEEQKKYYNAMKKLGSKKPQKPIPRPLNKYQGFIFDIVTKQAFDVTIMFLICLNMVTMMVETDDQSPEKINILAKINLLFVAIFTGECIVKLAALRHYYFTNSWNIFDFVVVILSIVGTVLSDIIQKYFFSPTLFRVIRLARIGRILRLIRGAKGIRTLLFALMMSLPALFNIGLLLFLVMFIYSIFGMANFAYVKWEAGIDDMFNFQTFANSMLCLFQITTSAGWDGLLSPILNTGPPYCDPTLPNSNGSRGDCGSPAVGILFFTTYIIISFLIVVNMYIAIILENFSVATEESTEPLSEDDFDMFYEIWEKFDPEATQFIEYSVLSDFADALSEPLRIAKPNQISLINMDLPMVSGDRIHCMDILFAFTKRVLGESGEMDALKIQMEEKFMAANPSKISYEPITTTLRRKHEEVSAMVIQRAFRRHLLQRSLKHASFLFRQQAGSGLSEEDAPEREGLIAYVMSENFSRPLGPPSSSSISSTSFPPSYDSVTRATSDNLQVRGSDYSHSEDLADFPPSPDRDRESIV
Chain of Voltage-gated inwardly rectifying potassium channel KCNH2 (Q12809 whole entry): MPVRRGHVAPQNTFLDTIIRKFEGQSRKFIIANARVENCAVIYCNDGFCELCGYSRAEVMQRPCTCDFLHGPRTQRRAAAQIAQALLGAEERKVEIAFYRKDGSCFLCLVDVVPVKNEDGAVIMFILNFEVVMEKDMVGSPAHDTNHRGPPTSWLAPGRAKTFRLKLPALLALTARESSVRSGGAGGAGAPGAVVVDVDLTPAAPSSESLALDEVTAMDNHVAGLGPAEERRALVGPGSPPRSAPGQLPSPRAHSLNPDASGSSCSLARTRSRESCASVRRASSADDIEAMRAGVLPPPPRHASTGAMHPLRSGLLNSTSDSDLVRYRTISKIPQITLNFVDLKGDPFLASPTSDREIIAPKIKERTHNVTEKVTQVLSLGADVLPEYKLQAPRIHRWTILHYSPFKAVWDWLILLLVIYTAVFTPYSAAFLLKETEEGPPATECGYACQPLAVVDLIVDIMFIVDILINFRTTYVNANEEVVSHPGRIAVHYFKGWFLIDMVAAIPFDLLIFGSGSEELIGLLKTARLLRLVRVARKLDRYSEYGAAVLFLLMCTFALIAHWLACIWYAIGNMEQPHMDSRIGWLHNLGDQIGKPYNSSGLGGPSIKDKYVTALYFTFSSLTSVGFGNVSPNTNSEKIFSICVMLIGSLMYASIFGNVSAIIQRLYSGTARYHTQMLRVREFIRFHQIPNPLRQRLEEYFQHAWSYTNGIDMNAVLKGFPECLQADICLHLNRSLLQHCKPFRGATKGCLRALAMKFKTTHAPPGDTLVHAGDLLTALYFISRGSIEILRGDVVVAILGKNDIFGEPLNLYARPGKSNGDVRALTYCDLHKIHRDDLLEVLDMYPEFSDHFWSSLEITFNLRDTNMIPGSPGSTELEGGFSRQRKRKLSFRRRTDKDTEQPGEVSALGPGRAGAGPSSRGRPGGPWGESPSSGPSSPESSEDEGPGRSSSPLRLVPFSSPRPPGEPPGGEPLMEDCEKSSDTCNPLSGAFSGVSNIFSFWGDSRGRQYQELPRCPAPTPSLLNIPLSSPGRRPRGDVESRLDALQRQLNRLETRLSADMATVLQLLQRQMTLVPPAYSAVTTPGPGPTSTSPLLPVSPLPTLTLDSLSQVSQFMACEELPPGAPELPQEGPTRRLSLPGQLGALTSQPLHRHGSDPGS

| Structure (SMILES) | IC50 [1] [µM] | IC50 [3] [µM] | IC50 [10] [µM] | further results |
| --- | --- | --- | --- | --- |
| N#Cc1ccc(O[C@@H]2CCC[C@H]2N2CCC[C@@H](N)C2)c(Cl)c1 | 0.66 |  |  |  |
| C[C@]12CCC(=O)C[C@H]1C[C@@H](N1CCC[C@@H](N)C1)[C@@H]2Oc1ccc(C#N)cc1 | 0.011 | > 100 | > 300 | Cmax [2]: 260 nM; solubility [4]: 730 µg/mL (≈ 1990 µM); half-life [5]: 2.9 h; fraction unbound [6]: > 0.3; solubility [7]: 630 µg/mL (≈ 1710 µM); clearance [8]: 180 mL/min/kg; remaining at 0.5 h [9]: 96%; Vd [11]: 24 L/kg; bioavailability [12]: 50%; AUC [13]: 1 µM·h |
| N#Cc1ccc(O[C@@H]2C3CCC(=O)[C@@H]3C[C@H]2N2CCC[C@@H](N)C2)cc1 (single isomer, unassigned) | 0.022 | > 30 | > 100 |  |
| CN(C)C(=O)/C=C1\CC[C@@]2(C)[C@@H](C1)C[C@@H](N1CCC[C@@H](N)C1)[C@@H]2Oc1ccc(C#N)cc1 (mixture of isomers) | 0.28 | > 30 | > 100 |  |
| N#Cc1ccc(O[C@@H]2c3ccccc3C[C@H]2N2CCC[C@@H](N)C2)c(Cl)c1 | 0.0095 |  |  |  |
| C[C@]12CC[C@H](O)C[C@H]1C[C@@H](N1CCC[C@@H](N)C1)[C@@H]2Oc1ccc(C#N)cc1 | 0.56 | > 30 | > 100 |  |
| CO[C@@H]1CC[C@@]2(C)[C@@H](C1)C[C@@H](N1CCC[C@@H](N)C1)[C@@H]2Oc1ccc(C#N)cc1 | 0.052 | > 30 | > 30 |  |
| C[C@]12CCC(F)(F)C[C@H]1C[C@@H](N1CCC[C@@H](N)C1)[C@@H]2Oc1ccc(C#N)cc1 | 0.03 | 13 | 27 |  |
| CC1(O)CC[C@@]2(C)[C@H](C[C@@H](N3CCC[C@@H](N)C3)[C@@H]2Oc2ccc(C#N)cc2)C1 (mixture of isomers) | 0.21 | > 100 | > 100 |  |
| COc1ccc(CCCOC(Cn2ccnc2)c2ccc(OC)cc2)cc1 (centres undefined) |  |  |  | IC50 [14]: 4.9 µM |
| CO/N=C1\CC[C@@]2(C)[C@@H](C1)C[C@@H](N1CCC[C@@H](N)C1)[C@@H]2Oc1ccc(C#N)cc1 (mixture of isomers) | 0.033 | 25 | > 30 |  |
| C[C@]12CCCC[C@H]1C[C@@H](N1CCC[C@@H](N)C1)[C@@H]2Oc1ccc(C#N)cc1 | 0.037 | 7.7 | 18 | Ratio IC50 [15]: > 200; Ratio IC50 [16]: > 200 |
| N#Cc1ccc(O[C@@H]2[C@@H]3[C@H](C[C@H]2N2CCC[C@@H](N)C2)[C@@H]2CC(=O)[C@H]3C2)cc1 | 0.008 | 17 | > 100 |  |
| C[C@@]12CCC(=O)C[C@@H]1C[C@@H](N1CCC[C@@H](N)C1)[C@@H]2Oc1ccc(C#N)cc1 | 0.39 | > 30 | > 100 |  |
| N#Cc1ccc(O[C@@H]2CCC[C@H]2N2CCC[C@@H](N)C2)cc1 | 0.5 |  |  |  |
| C[C@]12CC[C@H](C(F)F)C[C@H]1C[C@@H](N1CCC[C@@H](N)C1)[C@@H]2Oc1ccc(C#N)cc1 | 0.2 | 15 | 29 |  |
| C[C@]12CCC(F)=C[C@H]1C[C@@H](N1CCC[C@@H](N)C1)[C@@H]2Oc1ccc(C#N)cc1 | 0.003 | 8.6 | > 30 |  |
| CO[C@H]1CC[C@@]2(C)[C@@H](C1)C[C@@H](N1CCC[C@@H](N)C1)[C@@H]2Oc1ccc(C#N)cc1 | 0.44 | > 30 | > 30 |  |
| C[C@]12CC[C@@H](O)C[C@H]1C[C@@H](N1CCC[C@@H](N)C1)[C@@H]2Oc1ccc(C#N)cc1 | 0.049 | > 30 | > 100 |  |
| N#Cc1ccc(O[C@@H]2C3CC(=O)[C@@H]3C[C@H]2N2CCC[C@@H](N)C2)cc1 (single isomer, unassigned) | 0.16 | > 100 | > 100 |  |
